Measured values published in patent publication US20180153826A1, “MATERIALS AND METHODS FOR THE TREATMENT OF CYSTIC FIBROSIS” (UNIVERSITY OF FLORIDA RESEARCH FOUNDATION, INC., priority 2015, published 2018).

Legend:
[1] = test system: cAMP-dependent HCO3^− secretion; experiment: Cyclic nucleotide (cAMP)-dependent HCO3^− secretion, lumen Cl^−/SCFA-free; parameters: species or system rat; conditions: luminal; glibenclamide 100 μM, GlyH-101 10 μM, NPPB 100 μM (data not shown)
Experimental: Stripped mucosal sheets were mounted into Ussing chambers (window area=0.3-0.5 cm^2, Physiologic Instruments, San Diego, Calif.). The mucosal side of tissue was bathed with an unbuffered HCO3^--free Cl^- Ringer solution (see Table 2 for detailed composition) circulated by a gas lift with 100% O2 while the serosal side was bathed with buffered Cl^- Ringer solution (pH 7.4) that contained 25 mM HCO3^- and gassed with 5% CO2/95% O2. Each side contained 3-5 ml of solution and the temperature of the solution was adjusted to and maintained at 37° C. by heated water-jacketed reservoirs. Experiments were performed under short-circuit conditions (Voltage-Current Clamp, VCC MC8; Physiologic Instruments, San Diego, Calif.) to maintain the transepithelial potentials at 0 mV, except for brief interruption at 20-second intervals for recording of open-circuit potential (VT, mV). Two types of approaches were used in the measurement of colonic HCO3^- secretion, namely, measurement of lumen pH or pH stat titration of net alkalinization by colonic mucosa. […] Radiometer Analytical, Villeurbanne, France). The amount of the acid delivered per unit time per surface area was used to quantitate HCO3^- secretion by the mucosa. Measurements were recorded continuously and mean values for consecutive 5 or 10 min periods were averaged. […] The short-circuit current (Isc) was measured in microamperes (μA) and converted into μEq/hr/cm^2. Tissue resistance (R, Ω cm^2) was calculated from Ohm's law. Colon segments were prepared and treated as in the secretagogue-induced HCO3^- secretion experiments except that they were bathed luminally with HCO3^--free Ringer solution that contained no isobutyrate and no Cl^-. Cyclic nucleotide-dependent HCO3^- secretion was calculated as […] (the difference between JHCO3 after minus JHCO3 before the addition of forskolin). When inhibitor was used, it was added at 30 min before […] or forskolin.

distal colonic mucosa = experiment: Lumen alkalinization response to [Ca^2+]o (lumen pH, Ussing chamber); parameters: species or system rat; conditions: for lumen alkalinization rate: mean±SE, n=3
Experimental: Experiments were performed using non-fasting male Sprague-Dawley rats and C57BL/6 mice. Rats weighting 100-400 g were obtained from Charles River Laboratories. Mice lacking CaSR expression in intestinal epithelial cells (CaSR^−/−) and their CaSR^+/+ littermates were bred and maintained. CaSR^−/− mice were generated as previously described. Briefly, CaSR flox/flox mice were bred with transgenic mice expressing Cre Recombinase under the control of the villin 1 promoter and genotyped prior to all experiments after an approximate 10-12 generations. Mice were used at 5-10 weeks of age. Animals were fed and maintained on regular chow (Harlan) with free access to water before sacrifice. Animals were sacrificed with standard CO2 inhalation followed by cervical dislocation. The colons were isolated, cut open along the mesenteric border into a flat sheet, and flushed with ice-cold Ringer solutions. Mucosa from the distal colon were carefully hand-stripped off of serosal, muscular and submucosal layers as described and a pair of adjacent mucosal segments were incised and mounted into Ussing chambers. In some experiments, stripped mucosa was incised longitudinally into two equal pieces in order to facilitate comparisons between control and treatment. Short-circuit current and transepithelial resistance differences between these two adjacent tissues were less than 15%.
(§1) Stripped mucosal sheets were mounted into Ussing chambers (window area=0.3-0.5 cm^2, Physiologic Instruments, San Diego, Calif.). The mucosal side of tissue was bathed with an unbuffered HCO3^−-free Cl^− Ringer solution (see Table 2 for detailed composition) circulated by a gas lift with 100% O2 while the serosal side was bathed with buffered Cl^− Ringer solution (pH 7.4) that contained 25 mM HCO3^− and gassed with 5% CO2/95% O2. Each side contained 3-5 ml of solution and the temperature of the solution was adjusted to and maintained at 37° C. by heated water-jacketed reservoirs. Experiments were performed under short-circuit conditions (Voltage-Current Clamp, VCC MC8; Physiologic Instruments, San Diego, Calif.) to maintain the transepithelial potentials at 0 mV, except for brief interruption at 20-second intervals for recording of open-circuit potential (VT, mV).
(§2) Two types of approaches were used in the measurement of colonic HCO3^− secretion, namely, measurement of lumen pH or pH stat titration of net alkalinization by colonic mucosa. […] The amount of the acid delivered per unit time per surface area was used to quantitate HCO3^− secretion by the mucosa. Measurements were recorded continuously and mean values for consecutive 5 or 10 min periods were averaged. The rate of HCO3^− secretion (JHCO3) is expressed as μEq/hr/cm^2. The short-circuit current (Isc) was measured in microamperes (μA) and converted into μEq/hr/cm^2. Tissue resistance (R, Ω cm^2) was calculated from Ohm's law.
Two equal pieces of mucosa from each colon that were obtained by longitudinal division along the antimessenteric border were mounted into two Ussing chambers. […] After 15 to 30 min, when stabilization was achieved and basal lumen pH recordings performed, HCO3^−-free Ringer solution in the serosal side was replaced by 25 mM HCO3-containing Ringer solution, and changes in lumen pH were monitored and recorded for 15 to 30 min. […]

ENaC = ENaC activity as amiloride-sensitive bumetanide-insensitive Isc, weanling distal colon; parameters: species or system rat; conditions: 2.5% w/w added to diet vs normal 1%; 3 week old rats, distal colon
Experimental: FIG. 17. The inhibitory effect of […] on ENaC was examined electrophysiologically by measuring amiloride-sensitive short-circuit current responses in the presence or absence of […]. Weanling infant distal colonic mucosa, which expresses highest activity of ENaC, is employed and mounted in Ussing chamber. FIGS. 19A-19C. […] Here, the activity of ENaC is measured as amiloride-sensitive bumetanide-insensitive Isc. […] FIGS. 20A-20C. […] The activity of ENaC was measured as amiloride-sensitive bumetanide-insensitive Isc. […] Secretory Cl current is mediated by apical CFTR. This Cl secretory Isc is sensitive to bumetanide, applied to the basolateral side of the epithelium. There, bumetanide inhibits Cl entry from blood into the cell; thus, in the presence of bumetanide, the secretory Cl current is eliminated. Absorptive Na current is mediated by apically located epithelial Na channel (ENaC). This latter current is particularly high in this weanling age and is sensitive to amiloride, when it is applied luminally.

[2] = test system: CFTR-mediated and non CFTR-mediated HCO3^− secretion; experiment: Isc and pH stat HCO3^− secretion with/without lumen Cl^−, CFTR inhibitors or DIDS (FIGS. 5, 6); conditions: R568 response
Source text: FIG. 3. Experimental approach 1: The Ussing chamber pH-stat set up used to monitor and measure HCO3^- secretion by colonic mucosa. FIG. 4. Experimental Approach 2: Measurement of HCO3^- secretion by colonic mucosa in the presence of apical NPPB/Glibenclamide. FIGS. 5A-5F. Activation of CaSR by […] inhibits CFTR-mediated HCO3^- secretion (JHCO3) and ISC but stimulates non CFTR-mediated HCO3^- secretion (JHCO3) and Isc. Physiological approach assayed with, versus without, lumen Cl^-. FIGS. 6A-6F. Activation of CaSR by […] inhibits CFTR-mediated HCO3^- secretion (JHCO3) and ISC but stimulates CFTR-independent HCO3^- secretion (JHCO3) and Isc. Pharmacological approach assayed with, and without, CFTR transporter inhibitors or AE inhibitor DIDS.

Cl^−/HCO3^− exchange = Cl^−/HCO3^− exchange activity (Cl^−-dependent HCO3^− secretion); parameters: species or system rat; conditions: pretreatment, 100 μM, lumen side (data not shown)
Experimental: as §1, with “Experiments were performed under short-circuit conditions (Voltage-Current Clamp, VCC MC8; Physiologic Instruments, San Diego, Calif.) to maintain the transepithelial potentials at 0 mV, except for brief interruption at 20-second intervals for recording of open-circuit potential (VT, mV).” left out
as §2, with “law. […]” for “law.”

[3] = test system: Cl^− secretion induced by forskolin; conditions: rat distal colon; cited from earlier work

O=C(CNc1ccc2ccccc2c1)N/N=C/c1cc(Br)c(O)c(Br)c1O [GlyH-101]
effect of pretreatment on forskolin stimulatory and R568 inhibitory effects on Isc [1]: abolished

[Ca+2] [Ca^2+]
basal Isc (distal colonic mucosa; 0.5 mM [Ca^2+]o): 1.44±0.32 μEq/hr/cm^2 | basal Isc (distal colonic mucosa; 1.2 mM [Ca^2+]o): 1.10±0.10 μEq/hr/cm^2 | lumen alkalinization rate (distal colonic mucosa; [Ca^2+]o = 0.5 mM): 0.013±0.002 pH unit/min/cm^2 | lumen alkalinization rate (distal colonic mucosa; [Ca^2+]o = 1.2 mM): 0.031±0.002 pH unit/min/cm^2 | amiloride-sensitive ENaC-mediated basal Isc (ENaC): suppressed

O=S(=O)(O)c1cc(N=C=S)ccc1C=Cc1ccc(N=C=S)cc1S(=O)(=O)O [DIDS, 4,4′-diisothiocyano-2,2′-stilbenedisulfonic acid]
AE-associated current ([2]; FIG. 6C vs. 6A): partially inhibited | CFTR activity (current) ([2]; FIG. 6C vs. 6A): inhibited | HCO3^− secretion rate ([2]; FIG. 6F with 6D): stimulated or did not change | luminal Cl^−-dependent HCO3^− secretory mechanism (Cl^−/HCO3^− exchange): partially abolished

CCCCNc1cc(C(=O)O)cc(S(N)(=O)=O)c1Oc1ccccc1 [Bumetanide]
inhibition of forskolin-induced Cl^− secretion [3]: ~70%

COc1ccc(Cl)cc1C(=O)NCCc1ccc(S(=O)(=O)NC(=O)NC2CCCCC2)cc1 [glibenclamide]
effect of pretreatment on forskolin stimulatory and R568 inhibitory effects on Isc [1]: abolished

C[N+](C)(C)CCOC(N)=O [Carbachol]
lumen pH response (distal colonic mucosa; 100 μM, serosa, positive control): initial transient increase followed by a sustained increase in lumen pH

O=C(O)c1cc([N+](=O)[O-])ccc1NCCCc1ccccc1 [NPPB, 5-nitro-2-(3-phenylpropylamino)benzoic acid]
effect of pretreatment on forskolin stimulatory and R568 inhibitory effects on Isc [1]: abolished
